In assay [1] the test system is S. aureus ATCC 29213. Briefly: Minimum inhibitory concentration (MIC) assay, broth microdilution, MSSA. The note with it: Staphylococcus aureus, Table I. Format: cell-based. As for the experimental part: (§1) The antimicrobial activity of the compounds of the invention may be evaluated by a number of methods, including the following visual minimum inhibitory concentration (MIC) assay. This assay determines the minimum concentration of compound required to inhibit growth of a bacterial strain.
(§2) Whole-cell antibacterial activity is determined by broth microdilution using conditions recommended by the NCCLS (see National Committee for Clinical Laboratory Standards. 2001. Performance standards for antimicrobial susceptibility testing: 11th informational supplement. Vol. 21, no. 1, M100-S11. National Committee for Clinical Laboratory Standards, Wayne, Pa.). Test compounds are dissolved in DMSO and diluted 1:50 in Mueller-Hinton II broth (Becton-Dickinson) to produce a 256 μg/ml stock solution. In a 96-well microtiter plate, the compound solution is serially two-fold diluted in Mueller-Hinton II broth. After the compounds are diluted, a 50 μl aliquot of the test organism (˜1×10^6 cfu/mL) is added to each well of the microtiter plate. The final test concentrations ranges from 0.125-128 μg/mL. Inoculated plates are incubated in ambient air at 37° C. for 18 to 24 hours. The organisms selected for testing included laboratory strains S. aureus ATCC 29213 and E. coli ATCC 25922 (strains purchased from American Type Culture Collection, Manassas, Va.) m, S. aureus FQR700699, and Paeruginosa 27853. The minimum inhibitory concentration (MIC) is determined as the lowest concentration of compound that inhibited visible growth of the test organism.
For orientation: Broth dilution looks for growth in wells or tubes with falling amounts of substance.

The subject of assay [2] is fluoroquinolone-resistant S. aureus ATCC 700699. Briefly: Minimum inhibitory concentration (MIC) assay, broth microdilution, MRSA. Format: cell-based. Conditions: Staphylococcus aureus; fluoroquinolone-resistant S. aureus ATCC 700699; Table I; read-out: MRSA MIC. As for the experimental part: as §1, §2

≈ marks a conversion by molar mass, not a printed value.

The MIC is the least concentration at which growth counts as inhibited. For the compound `COc1c(N2CCNCC2)c(F)cc2c(=O)c3c(O)c(C(=O)C(C)(C)C)sc3n(C3CC3)c12` [Cmp 12, 9-cyclopropyl-6-fluoro-3-hydroxyl-8-methoxy-7-(piperazin-1-yl)-2-pivaloylthieno[2,3-b]quinolin 4(9H)-one], the MIC in assay [1] and in assay [2] was 8 µg/mL (≈ 16.9 µM) in each case. With `N#Cc1sc2c(c1O)c(=O)c1cc(F)c(N3CCNCC3)c(OC(F)F)c1n2C1CC1` [Cmp 3, 9-cyclopropyl-8-(difluoromethoxy)-6-fluoro-3-hydroxyl-4-oxo-7-(piperazin-1-yl)-4,9-dihydrothieno[2,3-b]quinoline-2-carbonitrile], the results for the MIC in assay [1] and in assay [2] were 0.25 µg/mL (≈ 0.555 µM) and 4 µg/mL (≈ 8.88 µM), respectively. As to `COc1c(N2CCNCC2)c(F)cc2c(=O)c3c(O)c(-c4ccc(F)c(F)c4)sc3n(C3CC3)c12` [Cmp 15, 9-cyclopropyl-2-(3,4-difluorophenyl)-6-fluoro-3-hydroxyl-8-methoxy-7-(piperazin-1-yl)thieno[2,3-b]quinolin-4(9H)-one], the results for the minimum inhibitory concentration (MIC) in assay [1] and in assay [2] were 8 µg/mL (≈ 16 µM) and 4 µg/mL (≈ 7.98 µM), respectively. For the compound `COc1c(N2CC[C@@H](C(C)(C)NCCC#N)C2)c(F)cc2c(=O)c3c(n(C4CC4)c12)SC(C#N)C3=O` (stereo partly drawn) [Cmp 49, 7-((R)-3-(2-(2-cyanoethylamino)propan-2-yl)pyrrolidin-1-yl)-9-cyclopropyl-6-fluoro-8-methoxy-3,4-dioxo-2,3,4,9-tetrahydrothieno[2,3-b]quinoline-2-carbonitrile], the values for the MIC in assay [1] and in assay [2] were 0.06 µg/mL (≈ 0.118 µM) and 0.5 µg/mL (≈ 0.981 µM), respectively.

Turning to `COc1c(N2CCNCC2)c(F)cc2c(=O)c3c(O)c(S(=O)(=O)c4ccccc4)sc3n(C3CC3)c12` [Cmp 14, 9-cyclopropyl-6-fluoro-3-hydroxyl-8-methoxy-2-(phenylsulfonyl)-methoxy-2-7-(piperazin-1-yl)thieno[2,3-b]quinolin-4(9H)-one], the MIC is 1 µg/mL (≈ 1.89 µM) in assay [1] and 16 µg/mL (≈ 30.2 µM) in assay [2]. Regarding `N#Cc1sc2c(c1O)c(=O)c1ccc(N3CCNCC3)c(OC(F)F)c1n2C1CC1` [Cmp 16, 9-cyclopropyl-8-(difluoromethoxy)-3-hydroxyl-4-oxo-7-(piperazin-l-yl)-4,9-dihydrothieno[2,3-b]quinoline-2-carbonitrile], the MIC in assay [1] was found to be 4 µg/mL (≈ 9.25 µM); in assay [2], 64 µg/mL (≈ 148 µM). The like results for `COc1c(N2CC[C@@H](C(C)(C)N)C2)c(F)cc2c(=O)c3c(O)c(C#N)sc3n(C3CC3)c12` [Cmp 10, (R)-7-(3-(2-aminopropan-2-yl)pyrrolidin-1-yl)-9-cyclopropyl-6-fluoro-3-hydroxyl-8-methoxy-4-oxo-4,9-dihydrothieno [2,3-b]quinoline-2-carbonitrile] were, in that order, 0.02 µg/mL (≈ 0.0438 µM) and 0.094 µg/mL (≈ 0.206 µM). For `COc1c(N2CCNCC2)c(F)cc2c(=O)c3c(O)c(C#N)sc3n(C3CC3)c12` [Cmp 9, 9-cyclopropyl-6-fluoro-3-hydroxyl-8-methoxy-4-oxo-7-(piperazin-1-yl)-4,9-dihydrothieno[2,3-b]quinoline-2-carbonitrile], the MIC came out at 0.06 µg/mL (≈ 0.145 µM) in assay [1] and 0.75 µg/mL (≈ 1.81 µM) in assay [2]. With `COc1c(N2CC[C@@H](C(C)(C)N)C2)ccc2c(=O)c3c(O)c(C#N)sc3n(C3CC3)c12` [Cmp 2, (R)-7-(3-(2-aminopropan-2-yl)pyrrolidin-1-yl)-9-cyclopropyl-3-hydroxyl-8-methoxy-4-oxo-4,9-dihydrothieno[2,3-b]quinoline-2-carbonitrile], the MIC was 0.06 µg/mL (≈ 0.137 µM) in assay [1] and 0.42 µg/mL (≈ 0.958 µM) in assay [2]. Take `COc1c(N2CC[C@@H](CN)C2)c(F)cc2c(=O)c3c(O)c(C(N)=O)sc3n(C3CC3)c12` [Cmp 61, (S)-7-(3-(aminomethyl)pyrrolidin-1-yl)-9-cyclopropyl-6-fluoro-3-hydroxyl-8-methoxy-4-oxo-4,9-dihydrothieno [2,3-b]quinoline-2-carboxamide]: the MIC in assay [1] worked out at 0.13 µg/mL (≈ 0.291 µM); in assay [2], 0.5 µg/mL (≈ 1.12 µM). In assay [1], `COc1c(N2CC[C@H](N)C2)c(F)cc2c(=O)c3c(O)c(C#N)[nH]c3n(C3CC3)c12` [Cmp 28, (S)-7-(3-aminopyrrolidin-l-yl)-9-cyclopropyl-6-fluoro-3-hydroxyl-8-methoxy-4-oxo-4,9-dihydro-1H-pyrrolo[2,3-b]quinoline-2-carbonitrile] gave an MIC of 64 µg/mL (≈ 161 µM).

The values are drawn from US8173636B2, “Hydroxylthienoquinolones and related compounds as anti-infective agents” (Achillion Pharmaceuticals, Inc., priority 2009, dated 2012).
